Test results from ChEMBL document CHEMBL3301361, “Experimental in vitro DMPK and physicochemical data on a set of publicly disclosed compounds”.
≈ marks a conversion by molar mass, not a printed value.

Key:
physchem [1] = details: pH 7.4 buffer
in vitro [2] = details: human, hepatocytes
physchem [3] = details: octan-1-ol/water
in vitro [4] = details: hepatocytes
in vitro [5] = details: human, plasma
in vitro [6] = details: SD, HW or BN, rat, plasma
in vitro [7] = details: human

Row | SMILES | solubility thermodynamic (physchem [1]) [µM] | hepatocyte CLint (in vitro [2]) [µL/min/1e6 cells] | logD (physchem [3]; pH 7.4, LogD7.4) | further results
1 | COCCOc1nc(N)c2[nH]c(=O)n(Cc3cccc(CC(=O)OC)c3)c2n1 | 21.9 (≈ 8.48 µg/mL) | 125 | 1.86 | 
2 | C=CC(=O)Nc1cccc(Oc2nc(Nc3ccc(N4CCN(C)CC4)cc3OC)ncc2Cl)c1 | 1 (≈ 0.495 µg/mL) | 3.31 | 3.9 | hepatocyte CLint (in vitro [4]): 79.4 µL/min/1e6 cells
3 | CNc1ncnc2c(CNc3cc(NC(=O)c4ccc5c(c4)OCCO5)ccc3C)cccc12 | 9.3 (≈ 4.24 µg/mL) | 41.7 | 4 | 
4 | Cc1ccc(-n2c(C)cc(/C=C3\SC(=O)NC3=O)c2C)cc1 |  | 17.8 |  | fraction unbound at 5 h (in vitro [5]; PPB): 0.0016
5 | N=c1c(S(=O)(=O)c2ccc(Cl)cc2)cc2c(=O)n3ccccc3nc2n1C1CCCC1 |  | 35.5 |  | fraction unbound at 5 h (in vitro [5]; PPB): 0.5
6 | COc1ccccc1-c1csc(-n2ncc(C#N)c2N)n1 |  | 55 |  | fraction unbound at 5 h (in vitro [6]): 0.529; fraction unbound at 5 h (in vitro [5]; PPB): 0.591
7 | Nc1nc(-c2ccc(Cl)c(Cl)c2)c(-c2ccncc2)s1 |  | 19.1 |  | fraction unbound at 5 h (in vitro [5]; PPB): 0.0074
8 | O=C(CN1CCOCC1)Nc1ccc(-c2cccc3c(=O)cc(N4CCOCC4)oc23)cc1O | 7.2 (≈ 3.35 µg/mL) | 18.6 | 2.4 | 
9 | CCOc1cc(-c2cccc3c(=O)cc(N4CCOCC4)oc23)ccc1NC(=O)CN1CCOCC1 | 1.4 (≈ 0.691 µg/mL) | 51.3 | 2.8 | 
10 | CC(C)Oc1cc(-c2cccc3c(=O)cc(N4CCOCC4)oc23)ccc1NC(=O)CN1CCOCC1 | 4 (≈ 2.03 µg/mL) | 87.1 | 3 | 
11 | CC(C)COc1cc(-c2cccc3c(=O)cc(N4CCOCC4)oc23)ccc1NC(=O)CN1CCOCC1 | 3.5 (≈ 1.83 µg/mL) | > 150 | 3.8 | 
12 | C=CCOc1cc(-c2cccc3c(=O)cc(N4CCOCC4)oc23)ccc1NC(=O)CN1CCOCC1 | 4.7 (≈ 2.38 µg/mL) | 83.2 | 3 | 
13 | C[C@@H]1CN(C(=O)N[C@H](Cc2ccc(F)cc2)C(=O)N2CCC(C(=O)NC(C)(C)C)(C3CCCCC3)CC2)C[C@H](C)N1 |  | 10.7 |  | fraction unbound at 5 h (in vitro [6]): 0.0872
14 | COc1cc(C2CCN(C(C)=O)CC2)ccc1Nc1ncc(Cl)c(-c2cnc3ccccn23)n1 | 2.2 (≈ 1.05 µg/mL) | 24 |  | 
15 | COc1cc(C(CO)CO)ccc1Nc1ncc(Cl)c(-c2cnc3ccccn23)n1 | 6.8 (≈ 2.9 µg/mL) | 19.9 | 3.1 | 
16 | COc1cc(N2CC3CNCC(C2)O3)ccc1Nc1ncc(Cl)c(-c2cnc3ccccn23)n1 | 25.1 (≈ 12 µg/mL) | 13.8 |  | 
17 | Cc1ccc2c(c1)c(Sc1ccc(S(C)(=O)=O)cc1)c(C)n2CC(=O)O |  | < 3 | -0.08 | microsomal CLint (in vitro [7]; liver microsomes): < 3 µL/min/mg; fraction unbound at 5 h (in vitro [5]; PPB): 0.0081
18 | Cc1c(Oc2ccc(Cl)cc2)c2c(NS(C)(=O)=O)cccc2n1CC(=O)O |  | < 3 | -0.98 | microsomal CLint (in vitro [7]; microsomes): < 3 µL/min/mg; fraction unbound at 5 h (in vitro [5]; PPB): 0.0374
19 | O=c1[nH]c2c(O)ccc([C@@H](O)CNCCc3ccc(CNCCc4ccccn4)cc3)c2s1 |  | < 3 | -0.25 | fraction unbound at 5 h (in vitro [6]): 0.483
20 | CC(C)(C)S(=O)(=O)N[C@H]1CC[C@H](C(=O)Nc2ccc(C(F)(F)F)cn2)CC1 |  | 5.75 |  | fraction unbound at 5 h (in vitro [5]; PPB): 0.0409
21 | CCN(C(=O)c1ccc(-c2ccc(Cl)cc2)o1)c1ccc(N2CCNCC2)cc1 |  | < 3 | 3.3 | 

Row | SMILES | solubility thermodynamic (physchem [1]) [µM] | hepatocyte CLint (in vitro [2]) [µL/min/1e6 cells] | logD (physchem [3]; pH 7.4, LogD7.4) | further results
22 | NC1(c2ccc(-c3nn4ccnc4cc3-c3ccccc3)cc2)CCC1 |  | 7.76 |  | hepatocyte CLint (in vitro [4]): > 150 µL/min/1e6 cells
23 | NC1(c2ccc(-c3nc4ccccn4c3-c3ccccc3)cc2)CCC1 |  | 18.2 |  | hepatocyte CLint (in vitro [4]): > 150 µL/min/1e6 cells
24 | NC(=O)c1ccn2c(-c3ccccc3)c(-c3ccc(C4(N)CCC4)cc3)nc2c1 | 112 (≈ 42.9 µg/mL) | 3.72 |  | 
25 | NC1(c2ccc(-c3ncc4nccn4c3-c3ccccc3)cc2)CCC1 |  | < 3 |  | hepatocyte CLint (in vitro [4]): 16.2 µL/min/1e6 cells
26 | CC1CNC(Nc2c(Cl)cccc2Cl)=N1 (stereo not drawn) |  | < 3 |  | fraction unbound at 5 h (in vitro [6]): 0.64
27 | O=S(=O)(Nc1ccc2sc(CO)nc2c1)c1ccc(Br)cc1 |  | 24.6 |  | fraction unbound at 5 h (in vitro [6]): 0.0018
28 | O=S(=O)(Nc1ccc(C(F)(F)F)cc1)c1ccc2sc(CO)nc2c1 |  | 15.5 |  | fraction unbound at 5 h (in vitro [5]; PPB): 0.0027
29 | N#Cc1cccc(-c2cccc(C(=O)O)c2)c1 |  | 8.13 | 0.3 | 
30 | O=C(CCCc1ccc2cccnc2n1)NCc1cc(-c2ccc(F)c(C(F)(F)F)c2)no1 |  | 19.9 |  | fraction unbound at 5 h (in vitro [6]): 0.0119; fraction unbound at 5 h (in vitro [5]; PPB): 0.0009
31 | O=C(NCc1ccc(OC(F)(F)F)cc1)C1c2ccccc2C(=O)N1CC1CC(F)(F)C1 (stereo not drawn) |  | 10 | 3.9 | 
32 | Cc1nn(C)c2cc(N3CCN(C(=O)[C@@H]4CCCC[C@H]4C(=O)NC4(C#N)CC4)[C@H](C)C3)ccc12 |  | 7.41 |  | hepatocyte CLint (in vitro [4]): 8.13 µL/min/1e6 cells
33 | C[C@H]1COCCN1c1nc(N2CCOC[C@@H]2C)c2ccc(-c3cccc(C(=O)NCCO)c3)nc2n1 |  | 10 | 2.49 | 
34 | CCC[C@H](CO)Nc1nc(S[C@@H](C)c2cccc(C#N)c2)nc2[nH]c(=O)sc12 |  | 22.4 | 3.7 | microsomal CLint (in vitro [7]; liver microsomes): 52.5 µL/min/mg; fraction unbound at 5 h (in vitro [6]): 0.0008; fraction unbound at 5 h (in vitro [5]; PPB): 0.0007
35 | CC(C)C[C@H](CO)Nc1nc(SCc2ccccc2)nc2[nH]c(=O)sc12 |  | 13.5 | 4.2 | 
36 | CC(C)C[C@H](CO)Nc1nc(SCc2ccccc2)nc2nc(N)sc12 |  | 20.4 | 4.2 | 
37 | Cn1sc(=O)c2cc(S(N)(=O)=O)ccc21 |  | 27.5 | 0.3 | hepatocyte CLint (in vitro [4]): 17.4 µL/min/1e6 cells
38 | O=c1[nH]c2ccccc2n1C1CCN(Cc2ccc(-c3nc4ccccc4cc3-c3ccccc3)cc2)CC1 |  | < 3 |  | hepatocyte CLint (in vitro [4]): 35.5 µL/min/1e6 cells
39 | CC[C@H](CO)Nc1nc(SCc2cccc(F)c2F)nc2nc(N)sc12 |  | 5.16 |  | microsomal CLint (in vitro [7]; liver microsomes): 62 µL/min/mg; fraction unbound at 5 h (in vitro [5]; PPB): 0.0149
40 | CC(C)(CO)Nc1nc(SCc2cccc(F)c2F)nc2nc(N)sc12 |  | 5.88 | 3.37 | 
41 | Cc1ccc(NC(=O)c2cccc(N(C)S(C)(=O)=O)c2)cc1NC(=O)c1ccc2ncccc2c1 |  | < 3 |  | hepatocyte CLint (in vitro [4]): 72.4 µL/min/1e6 cells
42 | CNC(=O)c1ccccc1Nc1nc(Nc2ccc(N3CCOCC3)cc2OC)ncc1Cl | 0.4 (≈ 0.188 µg/mL) | 16.2 |  | 

Row | SMILES | solubility thermodynamic (physchem [1]) [µM] | hepatocyte CLint (in vitro [2]) [µL/min/1e6 cells] | logD (physchem [3]; pH 7.4, LogD7.4) | further results
43 | COC(=O)c1ccc(C)c(NS(=O)(=O)c2ccc3c(c2)c(=O)sn3C)c1 |  | > 150 | 2.6 | hepatocyte CLint (in vitro [4]): > 150 µL/min/1e6 cells
44 | COC(=O)C1=C(C)NC(C)=C(C(=O)OC(C)C)[C@@H]1c1cccc2nonc12 [(R)-ISRADIPINE] |  | 126 | 3.77 | hepatocyte CLint (in vitro [4]): > 150 µL/min/1e6 cells
45 | C=CCc1ccccc1OCC(O)CNC(C)C (stereo not drawn) [ALPRENOLOL] |  | 13.2 | 0.99 | hepatocyte CLint (in vitro [4]): > 150 µL/min/1e6 cells
46 | COc1ccccc1Oc1c(NS(=O)(=O)c2ccc(C(C)(C)C)cc2)nc(-c2ncccn2)nc1OCCO [BOSENTAN] |  | 4.79 | 1.03 | microsomal CLint (in vitro [7]; liver microsomes): 15.1 µL/min/mg; fraction unbound at 5 h (in vitro [6]): 0.0122; fraction unbound at 5 h (in vitro [5]; PPB): 0.013
47 | COc1ccccc1OCCNCC(O)COc1cccc2[nH]c3ccccc3c12 (stereo not drawn) [CARVEDILOL] |  | 26.3 |  | microsomal CLint (in vitro [7]; microsomes): 41.7 µL/min/mg; fraction unbound at 5 h (in vitro [6]): 0.0262
48 | O=C1CN=C(c2ccccc2Cl)c2cc([N+](=O)[O-])ccc2N1 [CLONAZEPAM] | 240 (≈ 75.7 µg/mL) | 3.72 |  | logD (physchem [3]; pH 7.4): 3.72
49 | N=C(N)N1CCc2ccccc2C1 [DEBRISOQUIN] |  | 3.98 | -1.01 | 
50 | CCC1(C2=NCCN2)Cc2ccccc2O1 (stereo not drawn) [EFAROXAN] |  | < 3 |  | fraction unbound at 5 h (in vitro [6]): 0.76
51 | Cn1cc(C2=C(c3cn(C4CCN(Cc5ccccn5)CC4)c4ccccc34)C(=O)NC2=O)c2ccccc21 [ENZASTAURIN] | 0.8 (≈ 0.412 µg/mL) | 6 |  | fraction unbound at 5 h (in vitro [5]): 0.0017
52 | CCOc1ccc2ccc(=O)oc2c1 [ETHOXYCOUMARIN] | 1000 (≈ 190 µg/mL) | 35.5 | 2.2 | hepatocyte CLint (in vitro [4]): 64.6 µL/min/1e6 cells
53 | CCC1=C(C)CN(C(=O)NCCc2ccc(S(=O)(=O)NC(=O)N[C@H]3CC[C@H](C)CC3)cc2)C1=O [GLIMEPIRIDE] |  | 23.2 | 1.73 | 
54 | C#Cc1cccc(Nc2ncnc3cc4c(cc23)OCCOCCOCCO4)c1 [ICOTINIB] |  | 3.55 |  | hepatocyte CLint (in vitro [4]): 21.9 µL/min/1e6 cells
55 | N#Cc1ccc(C(c2ccc(C#N)cc2)n2cncn2)cc1 [LETROZOLE] |  | < 3 | 1.7 | fraction unbound at 5 h (in vitro [5]; PPB): 0.483
56 | CC#C[C@]1(O)CC[C@H]2[C@@H]3CCC4=CC(=O)CCC4=C3[C@@H](c3ccc(N(C)C)cc3)C[C@@]21C [MIFEPRISTONE] | 1.9 (≈ 0.816 µg/mL) | 26.9 |  | microsomal CLint (in vitro [7]; liver microsomes): 79 µL/min/mg; fraction unbound at 5 h (in vitro [5]; PPB): 0.0015
57 | CC(C)c1cc(C(=O)N2Cc3ccc(CN4CCN(C)CC4)cc3C2)c(O)cc1O [ONALESPIB] | 93.3 (≈ 38.2 µg/mL) | 23.4 | 2.5 | 
58 | CNC(=O)c1ccc(C)c(-n2c(C)cc(OCc3ccc(F)cc3F)c(Br)c2=O)c1 [PH-797804] | 21.4 (≈ 10.2 µg/mL) | < 3 | 2.8 | fraction unbound at 5 h (in vitro [6]): 0.0183
59 | CCCN1CCCC[C@H]1C(=O)Nc1c(C)cccc1C [ROPIVACAINE] |  | 15.5 |  | fraction unbound at 5 h (in vitro [6]): 0.511
60 | CO[C@H]1C[C@@H]2CC[C@@H](C)[C@@](O)(O2)C(=O)C(=O)N2CCCC[C@H]2C(=O)O[C@H]([C@H](C)C[C@@H]2CC[C@@H](O)[C@H](OC)C2)CC(=O)[C@H](C)/C=C(\C)[C@@H](O)[C@@H](OC)C(=O)[C@H](C)C[C@H](C)/C=C/C=C/C=C/1C [SIROLIMUS] |  | 50.1 |  | hepatocyte CLint (in vitro [4]): > 150 µL/min/1e6 cells
61 | CC(c1cc2ccccc2s1)N(O)C(N)=O (stereo not drawn) [ZILEUTON] | 436 (≈ 103 µg/mL) | 7.76 | 2.05 | 
62 | Cc1cc(CC(=O)O)n(C)c1C(=O)c1ccc(Cl)cc1 [ZOMEPIRAC] |  | < 3 |  | 
